Source: US20230173014A1, “WINE LEES, DERIVATIVES THEREOF AND THEIR USES” (GRANDES VINOS Y VIÑEDOS SA, priority 2021, published 2023)

Legend:
[1] = test system: spontaneously hypertensive rats (SHR); experiment: Antihypertensive activity after acute intragastric administration in hypertensive rats (tail-cuff); type: in vivo, rat; details: for ΔSBP (mmHg) 2 h: mean ± ESM n=6; for ΔSBP (mmHg) 4 h / ΔSBP (mmHg) 6 h / ΔSBP (mmHg) 8 h / ΔSBP (mmHg) 24 h / ΔSBP (mmHg) 48 h: same doses; for maximum values of SBP reduction: printed as at 4 h post-administration
Protocol: For the study, male SHR rats 17-20 weeks old and weighing between 310 and 360 g, from Charles River Laboratories España S.A. were used. The rats remained at a stable ambient temperature of 23° C., and with light-dark cycles of 12 hours, eating food and water ad-libitum.
The BP measurement in these animals was carried out with a modification of the tail-cuff technique, following the methodology and equipment described by Mas-Capdevila et al. 2018. The measurement of the SBP was performed prior to the administration of the treatments and after their administration at 2, 4, 6, 8, 24 and 48 h. The treatments consisted of the acute administration of a dose of 5 mL/kg bw of the different wine lees (supernatant collected after centrifugation at 2,950×g, 15 min, 4° C.). The effect of water administration (1.5 mL, negative control) was also evaluated in order to know the circadian variation of SBP in rats and of captopril (50 mg/kg bw dissolved in 1.5 mL of water), antihypertensive drug used as a positive control. The administration of all the treatments was carried out by means of an intragastric tube at between 9 and 10 a.m.
The SBP and DBP results are represented as a decrease in SBP or DBP at different times with respect to the SBP or DBP observed at 0 h (without treatment) for each animal (FIG. 1). Each data represents the mean±the ESM (n=6). Furthermore, the data of the different groups were compared in a 2-way analysis of variance (ANOVA) using the Tukey test at each post-administration time with the SPSS statistical program (IBM SPSS Statistics software version 20.0) and the difference was considered significant for p values <0.05.
In the present example, the effect of dry UVC wine lees, without alcohol, on its antihypertensive activity is described by means of its acute administration to SHR rats. The study was carried out following the method and conditions described in Example 3. The treatments that were evaluated consisted of the acute administration of water (1.5 mL), captopril (50 mg/kg bw), UVC wine lees (5 mL/kg bw), or the same lyophilized lees (125 mg/kg bw). The tested dose of lyophilized lees (125 mg/kg bw) corresponded to the same amount of dry product that is in 5 mL/kg bw of the wine lees. Solid state treatments were diluted in water for administration to animals. […] In fact, it increased its effectiveness from the two hours after its administration, producing a drop in systolic blood pressure of −33 mmHg compared to −12 mmHg, a drop produced by those without drying. Furthermore, its effect was more prolonged in time. Specifically, lyophilized UVC wine lees produced a drop in SBP of −41 mmHg at 24 h post-administration.
The antihypertensive effect of the “hydrolysate 3” was studied for 72 h (0, 2, 4, 6, 8, 24, 48, and 72 h), after its administration by intragastric tube. As in Example 3, negative and positive BP controls were performed, obtained after administration of water and captopril (50 mg/kg bw) respectively, in a volume of 1.5 mL per animal. The antihypertensive activity of the wine lees used to prepare “hydrolysate 3” and “hydrolysate 3” was evaluated, both at a dose of 5 mL/kg bw. The lees used in these tests were from a different batch than the one used in Example 3.
For the evaluation of the possible acute antihypertensive effect of the peptides, a study in SHR rats was carried out, provided by Charles River Laboratories Espana S.A. The rats' age, stalling conditions and BP measurement technique were the same as those described in Example 3. The initial SBP of the animals was 204±2 mmHg. A negative control (water) and a positive control (captopril) were also included during the study. The peptides were administered intragastrically at a single dose of 10 mg/kg bw and captopril at 50 mg/kg bw, diluted in water. BP measurements were pooled and the mean±ESM was obtained (n=6 per group). The same analysis of variance was used as in Example 3.

[2] = target: Angiotensin Converting Enzyme (ACE) (Homo sapiens, UniProt P12821); experiment: ACEI activity measurement (in vitro ACE inhibition); type: biochemical; details: synthetic peptides at 0.83 mg/mL
Sequence of Angiotensin Converting Enzyme (ACE) (P12821 30-1306, species assumed): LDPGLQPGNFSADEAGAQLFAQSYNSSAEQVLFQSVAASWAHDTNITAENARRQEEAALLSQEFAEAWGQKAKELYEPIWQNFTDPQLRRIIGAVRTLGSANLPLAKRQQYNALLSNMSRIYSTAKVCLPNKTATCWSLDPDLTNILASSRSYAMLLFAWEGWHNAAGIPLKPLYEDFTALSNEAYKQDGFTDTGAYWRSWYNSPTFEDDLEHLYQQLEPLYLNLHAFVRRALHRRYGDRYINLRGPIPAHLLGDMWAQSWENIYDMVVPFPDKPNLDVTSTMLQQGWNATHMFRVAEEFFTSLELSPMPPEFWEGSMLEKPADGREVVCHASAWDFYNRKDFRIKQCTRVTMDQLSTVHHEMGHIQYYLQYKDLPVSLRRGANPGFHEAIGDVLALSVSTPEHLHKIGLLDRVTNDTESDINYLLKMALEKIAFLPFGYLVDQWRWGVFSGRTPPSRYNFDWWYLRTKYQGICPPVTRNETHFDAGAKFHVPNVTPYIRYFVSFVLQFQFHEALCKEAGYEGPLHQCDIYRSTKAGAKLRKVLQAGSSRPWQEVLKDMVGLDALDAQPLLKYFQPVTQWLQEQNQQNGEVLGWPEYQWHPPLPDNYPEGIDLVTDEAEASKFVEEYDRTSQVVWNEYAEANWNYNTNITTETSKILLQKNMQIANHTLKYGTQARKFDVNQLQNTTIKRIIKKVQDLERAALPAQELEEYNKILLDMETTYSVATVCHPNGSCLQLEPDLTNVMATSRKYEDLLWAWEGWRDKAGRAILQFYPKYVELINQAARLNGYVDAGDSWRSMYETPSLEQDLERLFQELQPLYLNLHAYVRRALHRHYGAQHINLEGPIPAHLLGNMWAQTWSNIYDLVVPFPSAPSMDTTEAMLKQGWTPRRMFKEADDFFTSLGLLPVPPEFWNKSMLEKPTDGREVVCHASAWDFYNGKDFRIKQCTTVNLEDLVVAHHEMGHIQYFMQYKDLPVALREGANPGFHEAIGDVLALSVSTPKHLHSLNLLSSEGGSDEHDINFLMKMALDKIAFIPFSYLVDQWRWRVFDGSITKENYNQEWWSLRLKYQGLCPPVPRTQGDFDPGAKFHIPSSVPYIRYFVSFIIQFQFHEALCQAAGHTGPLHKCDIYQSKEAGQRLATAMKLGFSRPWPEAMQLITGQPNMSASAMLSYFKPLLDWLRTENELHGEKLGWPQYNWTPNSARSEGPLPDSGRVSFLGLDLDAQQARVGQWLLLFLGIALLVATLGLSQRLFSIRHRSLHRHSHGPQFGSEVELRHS
Protocol: Once the wine lees were collected, they were centrifuged at 2,950×g, 15 min, 4° C. and the supernatant was collected. The ACEI activity of the supernatants was determined as described in Example 2.
The ACEI activity measurement of the wine lees and their hydrolysates was performed according to the method described by Mas-Capdevila et al. 2018 (“Dose-related antihypertensive properties and the corresponding mechanisms of a chicken foot hydrolysate in hypertensive rats”. Nutrients. 2018, 10 (9), 1295), after centrifugation at 2,950×g, 15 min, 4° C. and a dilution of 1/256.
The percentage of inhibition (% Inhibition) was calculated applying the following formula: […]
The IC50 was calculated by determining the ACEI percentage of different concentrations of the sample. […] Subsequently, the necessary amount of the sample was calculated to inhibit 50% of the enzyme by extrapolating in the previously obtained straight line. […]

[3] = Example 10, peptides 10 mg/kg bw, captopril 50 mg/kg bw, intragastric

Compound	ΔSBP (mmHg) 2 h [1, 3] [mmHg]	ΔSBP (mmHg) 4 h ([1]; Example 10) [mmHg]	ΔSBP (mmHg) 6 h ([1]; Example 10) [mmHg]	ΔSBP (mmHg) 8 h ([1]; Example 10) [mmHg]	ΔSBP (mmHg) 24 h ([1]; Example 10) [mmHg]	ΔSBP (mmHg) 48 h ([1]; Example 10) [mmHg]	ACEI activity (%) [2] [%]	further results
C[C@H](CS)C(=O)N1CCC[C@H]1C(=O)O [Captopril, captopril, reference compound]	−19 ± 6	−34 ± 4	−44 ± 4	−45 ± 3	−22 ± 6	−7 ± 4	–	maximum decrease in SBP ([1]; Example 3, FIG. 1A, at 6 h post-administration, wine lees 5 mL/kg bw, captopril 50 mg/kg bw): −43.2±3.9 mmHg; maximum decrease in DBP ([1]; Example 3, FIG. 1B, at 6 h post-administration, wine lees 5 mL/kg bw, captopril 50 mg/kg bw): −47.2±1.5 mmHg; ΔSBP (mmHg) 2 h ([1]; Example 4, captopril 50 mg/kg bw, UVC wine lees 5 mL/kg bw, lyophilized lees 125 mg/kg bw): −24 ± 3 mmHg; ΔSBP (mmHg) 4 h ([1]; Example 4): −26 ± 2 mmHg; ΔSBP (mmHg) 6 h ([1]; Example 4): −43 ± 4 mmHg; ΔSBP (mmHg) 8 h ([1]; Example 4): −16 ± 3 mmHg; ΔSBP (mmHg) 24 h ([1]; Example 4): −1 ± 2 mmHg; ΔSBP (mmHg) 48 h ([1]; Example 4): −2 ± 3 mmHg; maximum decrease in SBP at 6 h ([1]; Example 8, FIG. 4, captopril 50 mg/kg bw): −43 mm Hg; decrease in SBP at 48 h after administration ([1]; Example 8, hydrolysate 5 mL/kg bw, captopril 50 mg/kg bw): no longer exerted any significant effect; ΔSBP (mmHg) 2 h ([1]; Example 10, peptides 10 mg/kg bw, captopril 50 mg/kg bw, intragastric, listed as captopril): −19 mmHg; ΔSBP (mmHg) 24 h ([1]; Example 10, listed as captopril): −22 mmHg; decrease in SBP ([1]; FIG. 2A, 6 h after administration, captopril 50 mg/kg bw): −43 mmHg
FKTTDQQTRTTVA (Synthesized peptide P1) [peptide identified in hydrolysate 3, chemically synthesized]	−12 ± 2	−15 ± 4	−23 ± 5	−24 ± 3	−13 ± 3	−1 ± 3	27.0 ± 5.6	maximum values of SBP reduction ([1]; Example 10, 10 mg/kg bw): −23 mmHg
LDSPSEGRAPG (Synthesized peptide P5) [peptide identified in hydrolysate 3, chemically synthesized]	−10 ± 4	−12 ± 5	−18 ± 3	−18 ± 3	−3 ± 4	−1 ± 4	–	–
LDSPSEGRAPGAD (Synthesized peptide P6) [peptide identified in hydrolysate 3, chemically synthesized]	−11 ± 2	−16 ± 4	−24 ± 3	−22 ± 4	−2 ± 4	−5 ± 4	2.4 ± 0.9	maximum values of SBP reduction ([1]; Example 10, 10 mg/kg bw): −24 mmHg
NPKLVTIV (Synthesized peptide P2) [peptide identified in hydrolysate 3, chemically synthesized]	−9 ± 6	−13 ± 4	−19 ± 5	−14 ± 3	−5 ± 4	−5 ± 3	48.5 ± 9.1	–
PAGELHP (Synthesized peptide P4) [peptide identified in hydrolysate 3, chemically synthesized]	−7 ± 3	−5 ± 4	−6 ± 5	−5 ± 4	−3 ± 7	−2 ± 3	–	antihypertensive effect in SHR ([1]; Example 10, 10 mg/kg bw): did not show an antihypertensive effect
TVTNPARIA (Synthesized peptide P3) [peptide identified in hydrolysate 3, chemically synthesized]	−2 ± 4	−14 ± 4	−16 ± 2	−14 ± 4	−5 ± 3	−2 ± 3	–	–
